Series [1] deals with T1, soluble epoxide hydrolase (sEH) (Homo sapiens, UniProt P34913).
T1 sequence (P34913 1-555): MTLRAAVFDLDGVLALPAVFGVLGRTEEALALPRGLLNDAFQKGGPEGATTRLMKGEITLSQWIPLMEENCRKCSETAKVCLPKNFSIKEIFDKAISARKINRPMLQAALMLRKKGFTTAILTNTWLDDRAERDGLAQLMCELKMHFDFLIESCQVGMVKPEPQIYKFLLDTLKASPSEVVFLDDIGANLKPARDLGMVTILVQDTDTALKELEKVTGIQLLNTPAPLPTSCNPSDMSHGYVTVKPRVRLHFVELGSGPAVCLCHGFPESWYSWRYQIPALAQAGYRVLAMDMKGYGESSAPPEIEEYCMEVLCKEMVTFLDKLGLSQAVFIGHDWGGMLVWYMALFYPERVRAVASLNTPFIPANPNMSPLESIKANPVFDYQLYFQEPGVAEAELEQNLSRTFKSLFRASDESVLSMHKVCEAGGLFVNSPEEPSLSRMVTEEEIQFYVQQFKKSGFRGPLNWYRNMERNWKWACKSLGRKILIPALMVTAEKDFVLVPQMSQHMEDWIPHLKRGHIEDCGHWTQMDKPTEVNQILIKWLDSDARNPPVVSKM
As to the kind of experiment: in vitro biochemical activity test, sEH enzyme inhibition with EET substrate (LC-MS). The conditions noted are these: 90 min pre-incubation at room temperature, 60 min reaction.

A short description of series [2]: in vivo pharmacokinetics in male ICR mice, IV and PO. Set-up: species or system mouse (male ICR mice). The conditions noted are these: for clearance / half-life / AUC: mouse plasma; for clearance: read-out: intravenous injection administration (IV) C1; for AUC: read-out: Oral administration by gavage (PO) AUC; for bioavailability: plasma, mouse, PO 2 mpk, IV 1 mpk. An excerpt: This example relates to the evaluation of the pharmacokinetic properties of (hetero)aryl imidazole compounds containing an aromatic substituent. Specifically, this experiment evaluated the in vivo pharmacokinetic properties of some of the (hetero)aryl imidazole compounds with an aromatic substituent synthesized in Example 1 in mice under intravenous (IV) and oral (PO) administration.
The animals used in this experiment were male ICR mice, which were obtained from Beijing Weitonglihua Experimental Animal Technology Co., Ltd. IV/PO administration was performed with a single drug or a combination of drugs (Cassette, no more than five drugs), the solvent was 5% DMSO+10% Solutol+85% Saline, the compound concentration was 0.2 mg/mL, and the IV/PO administration volume was 5/10 mL/kg, respectively. The animals in the oral administration group were fasted overnight before administration and fed 4 hours after administration. After administration, blood was collected from the cheek at the set time of the experiment. About 50 μL was collected for each sample and anticoagulated with sodium heparin. After collection, the blood was placed on wet ice and centrifuged within 1 hour to separate the plasma (6000 rpm, 3 minutes, 2-8° C.). Plasma samples were stored at −80° C. before analysis. The plasma samples were diluted and analyzed by LC-MS/MS to determine the blood drug concentration data in the samples at different time points, and Phoenix WinNonlin 8.2.0 was used to calculate the pharmacokinetic parameters.

[3] abbreviates: 1 mg/kg, IV, 1 mpk, read-out: intravenous injection administration (IV) T1/2 (converted).
The mark [4] stands for this setting: 2 mg/kg, PO, 2 mpk, read-out: Oral administration by gavage (PO) T1/2 (converted).

Read-outs that look alike come from different tables or passages of the source.

`Cc1nc(N)ncc1-c1cc2nc(-c3ccc(C(F)(F)F)cc3)[nH]c2c(F)c1F` [Compound 8, 5-(4,5-difluoro-2-(4-(trifluoro-methyl)phenyl)-1H-benzo[d]imidazol-6-yl)-4-methylpyr-imidine-2-amine] returned an IC50 in series [1] of 65 pM. For the same compound, in series [2] (1 mg/kg, IV, 1 mpk), the clearance is 1.3 mL/min/kg. Moreover, the results for the half-life in series [2] (setting [3]) and in series [2] (setting [4]) were 5.9 h and 6.4 h, respectively. Also, the AUC in series [2] (2 mg/kg, PO, 2 mpk) turned out to be 19600 ng·h/mL. Also, the bioavailability in series [2] (2 mg/kg) turned out to be 76%.

In the case of `Nc1cc(Cl)c(-c2cc3[nH]c(-c4ccc(C(F)(F)F)cc4)nc3cc2F)cn1` [Compound 61, 2-(4-(trifluoromethyl)phenyl)-6-(6-amino-4-chloropyridin-3-yl)-5-fluoro-1H-benzo[d] imidazole], the clearance in series [2] (1 mg/kg, IV, 1 mpk) is 1 mL/min/kg. Also, the half-life is 8.5 h in series [2] (setting [3]) and 10.2 h in series [2] (setting [4]). In addition, the AUC in series [2] (2 mg/kg, PO, 2 mpk) is 26100 ng·h/mL. Also, in series [2] (2 mg/kg), the bioavailability stood at 83%.
